Reference: the supplement of paper PMC10949913
Where “and” joins values, the source holds several entries; their conditions need not be identical. Identical values can stand only once.

Legend:
Assay in all cases: area under concentration-response curve (viability) (AUC (a.u.)); higher = less active
Settings in all cases: 48 h
CU-ACC2 = system: CU-ACC2
Procedure, shortened: (§1)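 Luminescence from CellTiter-Glo, read after 48 h, measured three adrenocortical carcinoma cell lines treated in 1,536-well plates with library compounds at 11 concentrations. Values were normalised per plate to vehicle and empty-well controls. The AC50 and area under the curve come from fitted concentration-response curves in inhibitory or non-responding classes only.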

NCI-H295R = system: NCI-H295R
Procedure, shortened: as §1

CU-ACC1 = system: CU-ACC1
Procedure, shortened: as §1

Row | Structure (SMILES) | area under concentration-response curve (CU-ACC2) | area under concentration-response curve (NCI-H295R) | area under concentration-response curve (CU-ACC1)
1 | Cc1n[nH]c2ncc(C(=O)N3CCC[C@H]3c3ccc(Cl)cc3)cc12 | 540 | 503 | 414
2 | N#CN1CCC[C@@H](n2nc(-c3ccc(Oc4ccc(F)cc4F)cc3)c(C(N)=O)c2N)C1 | 607 | 553 | 487
3 | C#CCN[C@@H]1CCc2ccccc21 | 642 | 590 | 565
4 | N#Cc1c(N(CC(=O)[O-])CC(=O)[O-])sc(C(=O)[O-])c1CC(=O)[O-] | 544 | 497 | 478
5 | Clc1ccc(-c2nc3sccn3c2/C=N/OCc2ccc(Cl)c(Cl)c2)cc1 | 549 | 425 | 490
6 | C=C[C@H]1CN2CCC1C[C@@H]2C(O)c1ccnc2ccc(OC)cc12 (some centres undefined) | 595 | 504 | 509
7 | C\C1=C(\SSC1=S)C2=CN=CC=N2 | 618 | 569 | 524
8 | CC(=O)Nc1nc(C)c(-c2ccc(Cl)c([S+](=O)([O-])NCCO)c2)s1 | 566 | 531 | 385
9 | CC[C@H](NC(=O)[C@H](C[S+](=O)([O-])CC1CC1)N[C@@H](c1ccc(F)cc1)C(F)(F)F)C(=O)C(=O)NC1CC1 | 510 | 538 | 534
10 | C[N]1C=C(C2=CC=CC=C12)/C3=C(/C(=O)NC3=O)C4=C[N](C)C5=CC(=CC=C45)[N+]([O-])=O | 608 | 454 | 611
11 | CC12CC3CC(C)(C1)CC(N)(C3)C2 | 431 | 457 | 437
12 | O=C(O)/C=C/c1ccc(Cn2ccnc2)cc1 | 486 | 572 | 485
13 | CCC/1=C(/NC2=C(C=N[N]2C1=O)C#N)C3=CC=CC=C3C | 577 and 487 | 552 and 522 | 550 and 493
14 | C#Cc1cccc(Nc2ncnc3cc(OCCOC)c(OCCO)cc23)c1 | 615 | 541 | 528
15 | C[C@H](Cc1ccc(O)c(O)c1)[C@@H](C)Cc1ccc(O)c(O)c1 | 565 | 532 | 496
16 | Cc1n[nH]c(C)c1Cc1sc2c(c1C(=O)N1C[C@H](O)CO1)c(=O)n(C)c(=O)n2CC(C)C | 597 | 554 | 379
17 | O=C(NCC(=O)N1CCCC1)Nc1ccc2cnccc2c1 | 633 | 569 | 565
18 | COC(c1ccccc1)(c1ccccc1)[C@H](Oc1nc(C)cc(C)n1)C(=O)O | 586 | 578 | 531
19 | CN[C@@H](C)C(=O)N[C@H]1CN(C(=O)CC(C)C)CC[C@H]2CC[C@@H](C(=O)NC(c3ccccc3)c3ccccc3)N2C1=O | 372 | 420 | 338
20 | CCn1c(-c2nonc2N)nc2cnc(Oc3cccc(NC(=O)c4ccc(OCCN5CCOCC5)cc4)c3)cc21 | 547 | 511 | 494
21 | Cc1ccsc1C(=CCCN1CCC[C@@H](C(=O)O)C1)c1sccc1C | 593 | 541 | 488
22 | O=c1cc(O)c(Cl)c[nH]1 | 641 | 586 | 558
23 | OC1CCC(Nc2ncc3nc(Nc4c(F)cc(F)cc4F)n([C@@H]4CCOC4)c3n2)CC1 (some centres undefined) | 531 | 446 | 464
24 | COc1ccc(-c2cc(=O)c3c(O)cc(O)cc3o2)cc1O | 447 | 437 | 452

Row | Structure (SMILES) | area under concentration-response curve (CU-ACC2) | area under concentration-response curve (NCI-H295R) | area under concentration-response curve (CU-ACC1)
25 | COc1cc2c(cc1-c1c(C)noc1C)ncc1[nH]c(=O)n([C@H](C)c3ccccn3)c12 | 515 | 459 | 490
26 | Nc1cc(c(cc1S(=O)(N)=O)S(N)(=O)=O)C(/Cl)=C(/Cl)Cl | 590 | 531 | 505
27 | Cc1cccc(-c2n[nH]cc2-c2ccc3ncccc3n2)n1 | 567 | 524 | 468
28 | COc1ccc([S+](=O)([O-])N2CCc3cccc(-c4ccncc4)c32)cc1 | 563 | 472 | 576
29 | ClC\1=C(/CN2CCCC2=N)NC(=O)NC1=O | 547 | 486 | 505
30 | CCNC(=O)C[C@H]1/N=C(/C2=CC=C(Cl)C=C2)C3=CC(=CC=C3[N]4C(=NN=C14)C)OC | 452 | 455 | 362
31 | CCC(C)C(N)\C1=N\C(CS1)C(=O)N[C@@H](CC(C)C)C(=O)N[C@H](CCC(O)=O)C(=O)N[C@@H]([C@@H](C)CC)C(=O)N[C@H]2CCCCNC(=O)[C@H](CC(N)=O)NC(=O)[C@@H](CC(O)=O)NC(=O)[C@H](CC3=CN=C[NH]3)NC(=O)[C@@H](CC4=CC=CC=C4)NC(=O)[C@@H](NC(=O)[C@@H](CCCN)NC2=O)[C@@H](C)CC (some centres undefined) | 682 | 582 | 593
32 | O=NN(CCCl)C(=O)NCCCl | 522 | 466 | 454
33 | COCC1(CO)C(=O)C2CCN1CC2 (centres undefined) | 513 | 468 | 443
34 | CC(C)(CO)n1cc(C(=O)c2cncc(NC(=O)Cc3ccc(Cl)cn3)c2)c2cnc(N)nc21 | 576 | 496 | 532
35 | CCCc1c(OCCCOc2ccc(OCC(=O)O)cc2)ccc(C(C)=O)c1O | 607 | 548 | 518
36 | NC(=O)C1CCCc2c1[nH]c1ccc(Cl)cc21 (centres undefined) | 597 | 545 | 496
37 | CC(=O)OCC(=O)[C@@]12\N=C(C)/O[C@@H]1C[C@H]3[C@@H]4CCC/5=C/C(=O)/C=C\[C@]5(C)[C@H]4[C@@H](O)C[C@]23C | 581 | 514 | 483
38 | COc1ccc2c(OCc3nnc4ccc(-c5ccccc5)nn34)ccnc2c1 | 609 | 589 | 520
39 | Cn1c(=O)c2c(ncn2C)n(C)c1=O | 533 | 498 | 479
40 | CC(C)C1CCC(C(=O)N[C@H](Cc2ccccc2)C(=O)O)CC1 (some centres undefined) | 652 | 599 | 551
41 | NC(CC1c2ccccc2Oc2ccccc21)(C(=O)O)C1CC1C(=O)O (centres undefined) | 621 | 512 | 530
42 | CCCC(CCC)C(=O)NC/1=N/C(=O)N(/C=C1)[C@@H]2O[C@H](CO)[C@@H](O)C2(F)F | 481 | 543 | 496
43 | NC/1=N/C(=O)N(C[C@@H](CO)OC[P](O)(O)=O)/C=C1 | 522 | 496 | 465
44 | CCc1cc(Nc2nccc(-c3c(-c4ccc(OC)c(C(=O)Nc5c(F)cccc5F)c4)nc4ccccn34)n2)c(OC)cc1N1CCC(N2CCN([S+](C)(=O)[O-])CC2)CC1 | 548 | 485 | 509
45 | Cc1ccc(CN2CCNCC2)cc1NC(=O)CNc1ccc(F)c(F)c1 | 635 | 596 | 531
46 | COC(=O)[C@H](Cc1ccccc1)NC(=O)[C@@H](N)CC(=O)O | 618 | 558 | 518
47 | O=C(NC1CCOCC1)c1ccc(-c2cc(-c3c[nH]nc3-c3ccccn3)ccn2)cc1 | 497 | 453 | 429
48 | Cc1ccc(-c2ccc(C)cn2)nc1 | 342 | 384 | 405
